According to BindingDB's records for doi:10.1021/jm00100a033 (Roche Research Center, 1992):
*1 amine or outer side, *2 acyl side, *3 side chain or, on linkers, in order; H or OH if unused. Where a SMILES comes first, the peptide text is derived from it. Side-chain parts run from the residue outwards. [ ]: non-standard residue; d: D form. The star is where a group is joined. ξ: configuration not given here. Thz(5,5-Me2) = CC1(C)SCN[C@@H]1C(=O)O; NH(2-Me-phenyl) = Cc1ccccc1N*; ξF = NC(Cc1ccccc1)C(=O)O; Boc = CC(C)(C)OC(=O)*; CO = O=C([*:1])[*:2]

Biological target: Gastrin/cholecystokinin type B receptor (Bos taurus)
Test: Inhibitory activity against cholecystokinin type B receptor from bovine striatal binding assay

IC50: 7.4 µM
Structure (SMILES): Cc1ccccc1NC(=O)NCCCC[C@H](NC(=O)[C@H](Cc1c[nH]c2ccccc12)NC(=O)OC(C)(C)C)C(=O)N1CSC(C)(C)[C@H]1C(=O)NC(Cc1ccccc1)C(N)=O (stereo partly specified) [[1-[1-[4-(1-Carbamoyl-2-phenyl-ethylcarbamoyl)-5,5-dimethyl-thiazolidine-3-carbonyl]-5-(3-o-tolyl-ureido)-pentylcarbamoyl]-2-(1H-indol-3-yl)-ethyl]-carbamic acid tert-butyl ester] (Boc-WK([CO-NH(2-Me-phenyl)])[Thz(5,5-Me2)][ξF]-NH2)
